Columns and labels:
CLK2 kinase = CLK2 kinase (Homo sapiens, UniProt P49760); test: CLK2 kinase activity assay (Z-lyte FRET); format: biochemical; conditions: Z-lyte Ser/Thr 6 peptide, 60 μM ATP, 1 h at room temperature;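 also: FRET read-out as coumarin to fluorescein emission ratio, unphosphorylated peptide as 0% and phosphorylated peptide as 100% controls, duplicate reactions, non-linear regression fit of dose-response curves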
CLK3 kinase = CLK3 kinase (Homo sapiens, UniProt P49761); test: CLK3 kinase activity assay (Z-lyte FRET); format: biochemical; conditions: Z-lyte Ser/Thr 18 peptide, 156 μM ATP, 1 h at room temperature;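 also: kinase activity read as coumarin/fluorescein emission ratio by FRET, unphosphorylated peptide as 0% and phosphorylated peptide as 100% control, values from non-linear regression of dose-response curves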
[1] = tested on: MMP-3 levels in supernatant of chondrocytes stimulated with IL1-β; test: Chondrocyte protection assay compound screening (MMP-3 LANCE Ultra); format: cell-based, human; conditions: Homo sapiens, Chondrocyte, IL1-β 10 ng/mL overnight, 11-point curves from 3 μM to 0.05 nM; for Emax: read-out: Maximum % Inhibition
Outline: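 Primary human chondrocytes (passage 2–5) in differentiation medium were stimulated with 10 ng/mL IL1-β for an overnight incubation at 37 °C. MMP-3 in 1:7-diluted supernatant was read by TR-FRET immunoassay against a standard curve, normalised to IL1-β-stimulated wells; EC50 and maximum % inhibition came from nonlinear regression.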

[2] = tested on: Wnt pathway activity (SW480 colon carcinoma cells stably expressing the Sp5-Luc reporter); test: Wnt pathway activity screening assay (Sp5-Luc reporter gene assay); conditions: Homo sapiens, SW480, Table 4; SW480 cells stably expressing Sp5-Luc reporter, 10-point dose-response from 10 μM, 36 to 48 hours
Experimental: The screening assay for Wnt pathway activity is described as follows.
SW480 colon carcinoma cells were transduced with a lentiviral vector expressing luciferase with a human Sp5 promoter consisting of a sequence of eight TCF/LEF binding sites. […] These stably transduced SW480 cells were expanded in cell culture and used for all further screening activities. Each compound was dissolved in DMSO as a 10 mM stock and used to prepare compound source plates. Serial dilution (1:3, 10-point dose-response curves starting from 10 μM) and compound transfer was performed using the ECHO 550 (Labcyte, Sunnyvale, Calif.) into 384-well white solid bottom assay plates (Greiner Bio-One) with appropriate DMSO backfill for a final DMSO concentration of 0.1%. […] Following incubation, 15 μl of BriteLite Plus luminescence reagent (Perkin Elmer) was added to each well of the 384-well assay plates. The plates were placed on an orbital shaker for 2 min and then luminescence was quantified using the Envision (Perkin Elmer) plate reader.

Chain of CLK2 kinase (P49760 whole entry): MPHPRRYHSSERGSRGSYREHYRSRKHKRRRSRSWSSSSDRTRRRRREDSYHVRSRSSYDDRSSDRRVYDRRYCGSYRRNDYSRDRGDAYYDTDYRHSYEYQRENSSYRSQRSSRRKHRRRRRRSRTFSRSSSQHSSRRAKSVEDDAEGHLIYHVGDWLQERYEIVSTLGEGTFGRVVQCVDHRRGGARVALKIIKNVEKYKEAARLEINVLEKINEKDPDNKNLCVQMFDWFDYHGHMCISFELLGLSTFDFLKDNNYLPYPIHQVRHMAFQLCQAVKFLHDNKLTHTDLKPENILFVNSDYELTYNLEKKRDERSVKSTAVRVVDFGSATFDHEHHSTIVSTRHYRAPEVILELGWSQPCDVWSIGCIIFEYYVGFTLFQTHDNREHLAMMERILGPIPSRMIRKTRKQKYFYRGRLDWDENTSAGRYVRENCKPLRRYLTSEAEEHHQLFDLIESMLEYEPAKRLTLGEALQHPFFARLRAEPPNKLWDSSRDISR
Chain of CLK3 kinase (P49761 whole entry): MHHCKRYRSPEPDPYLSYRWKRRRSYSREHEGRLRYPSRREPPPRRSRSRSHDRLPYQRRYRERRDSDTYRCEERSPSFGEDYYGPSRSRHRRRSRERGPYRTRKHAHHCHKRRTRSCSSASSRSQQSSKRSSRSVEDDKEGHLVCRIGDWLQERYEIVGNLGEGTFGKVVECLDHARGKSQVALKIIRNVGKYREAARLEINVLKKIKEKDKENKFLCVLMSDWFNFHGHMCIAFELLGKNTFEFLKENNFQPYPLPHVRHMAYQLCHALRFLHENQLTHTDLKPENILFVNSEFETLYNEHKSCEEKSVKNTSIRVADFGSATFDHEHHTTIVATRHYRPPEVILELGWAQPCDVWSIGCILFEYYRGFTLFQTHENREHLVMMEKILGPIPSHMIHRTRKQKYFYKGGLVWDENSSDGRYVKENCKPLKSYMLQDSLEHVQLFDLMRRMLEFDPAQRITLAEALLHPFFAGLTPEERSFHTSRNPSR

`CS(=O)(=O)c1ccc(NC(=O)c2n[nH]c3ccc(-c4cncc(CN5CCCCC5)c4)cc23)cn1` [compound 89] was tested, and the EC50 (CLK2 kinase) was 1 nM, the EC50 (CLK3 kinase) was 14 nM and the EC50 [1] was 5.5 nM. It also gave an Emax [1] of 79.8% and an EC50 [2] of 27 nM.

`O=C(Nc1ccc(N2CC(CO)(CO)C2)nc1)c1n[nH]c2ccc(-c3cncc(CN4CCCCC4)c3)cc12` [compound 90] gave an EC50 (CLK2 kinase) of 1 nM, an EC50 (CLK3 kinase) of 39 nM and an EC50 [1] of 6.7 nM. For the same compound, the Emax [1] was 29.7% and the EC50 [2] was 1500 nM.

`Nc1ncc(NC(=O)c2n[nH]c3ccc(-c4cncc(CN5CCCCC5)c4)cc23)cn1` [compound 96] gave an EC50 (CLK2 kinase) of 1 nM, an EC50 (CLK3 kinase) of 17 nM and an EC50 [1] of 180 nM. The Emax [1] was 100% and the EC50 [2] was 30 nM.

`O=C(Nc1cnccn1)c1n[nH]c2ccc(-c3cncc(CN4CCCCCC4)c3)cc12` [compound 99] was tested, and the EC50 (CLK2 kinase) was 2 nM, the EC50 (CLK3 kinase) was 135 nM and the EC50 [1] was at least 3000 nM. For the same compound, the Emax [1] was 39.6% and the EC50 [2] was 430 nM.

`O=C(Nc1cccnc1)c1n[nH]c2ccc(-c3cncc(CN4CCS(=O)(=O)CC4)c3)cc12` [compound 100] showed an EC50 (CLK2 kinase) of 1 nM, an EC50 (CLK3 kinase) of 37 nM and an EC50 [1] of 616 nM. For the same compound, the Emax [1] was 8.6% and the EC50 [2] was 210 nM.

With `O=C(Nc1ccc(CN2CCCC2)cc1)c1n[nH]c2ccc(-c3cncnc3)cc12` [compound 103] the EC50 (CLK2 kinase) was 2 nM, the EC50 (CLK3 kinase) was 1430 nM and the EC50 [1] was 307 nM. For the same compound, the Emax [1] was 36.3% and the EC50 [2] was 1310 nM.

`O=C(Nc1ccc(CN2CCCC2)cc1)c1n[nH]c2ccc(-c3cnccn3)cc12` [compound 104] was tested, and the EC50 (CLK2 kinase) was 2 nM, the EC50 (CLK3 kinase) was 378 nM and the EC50 [1] was 7.1 nM. It also gave an Emax [1] of 72.8% and an EC50 [2] of 1660 nM.

Work on `CC(C)NC(=O)c1n[nH]c2ccc(-c3cncc(NC4CCNCC4)n3)cc12` [compound 105] yielded an EC50 (CLK2 kinase) of 1 nM, an EC50 (CLK3 kinase) of 2440 nM and an EC50 [1] of 2740 nM. For the same compound, the Emax [1] was 53.1% and the EC50 [2] was 2400 nM.

In the case of `Cn1cc(-c2cc3c(C(=O)Nc4ccc(OCCN5CCCC5)cc4)n[nH]c3cc2F)cn1` [compound 108], the EC50 (CLK2 kinase) is reported as 1 nM, the EC50 (CLK3 kinase) is reported as 101 nM and the EC50 [1] is reported as at least 3000 nM. For the same compound, the Emax [1] was 32.1% and the EC50 [2] was 315 nM.

With `CN1CCC(Nc2ccc(NC(=O)c3n[nH]c4cc(F)c(-c5cnn(C)c5)cc34)cn2)CC1` [compound 109] the EC50 (CLK2 kinase) was 1 nM, the EC50 (CLK3 kinase) was 79 nM and the EC50 [1] was 1160 nM. The Emax [1] was 100% and the EC50 [2] was 230 nM.

For `CN1CCC(Oc2ccc(NC(=O)c3n[nH]c4cc(F)c(-c5cnn(C)c5)cc34)cn2)CC1` [compound 110], the EC50 (CLK2 kinase) was 1 nM, the EC50 (CLK3 kinase) was 48 nM and the EC50 [1] was 1080 nM. For the same compound, the Emax [1] was 87.2% and the EC50 [2] was 120 nM.

Work on `CN1CCC(Oc2ncc(NC(=O)c3n[nH]c4cc(F)c(-c5cnn(C)c5)cc34)cc2F)CC1` [compound 111] yielded an EC50 (CLK2 kinase) of 1 nM, an EC50 (CLK3 kinase) of 89 nM and an EC50 [1] of 12.6 nM. It also gave an Emax [1] of 76.2% and an EC50 [2] of 1150 nM.

`Cn1cc(-c2cc3c(C(=O)Nc4ccc5c(c4)CNC5)n[nH]c3cc2F)cn1` [compound 112] was tested, and the EC50 (CLK2 kinase) was 1 nM, the EC50 (CLK3 kinase) was 116 nM and the EC50 [1] was 1200 nM. For the same compound, the Emax [1] was 88.3% and the EC50 [2] was 793 nM.

Work on `O=C(Nc1ccc(CN2CCCC2)cc1)c1n[nH]c2ccc(-c3cnn(C4CC4)c3)cc12` [compound 113] yielded an EC50 (CLK2 kinase) of 1 nM, an EC50 (CLK3 kinase) of 133 nM and an EC50 [1] of at least 3000 nM. For the same compound, the Emax [1] was 57% and the EC50 [2] was 451 nM.

With `Cc1ncc(NC(=O)c2n[nH]c3ccc(-c4cnn(C5CCN(C)CC5)c4)cc23)s1` [compound 114] the EC50 (CLK2 kinase) was 1 nM, the EC50 (CLK3 kinase) was 48 nM and the EC50 [1] was at least 3000 nM. It also gave an Emax [1] of 62.8% and an EC50 [2] of 95 nM.

For `O=C(Nc1ccc(OC(F)F)cc1)c1n[nH]c2ccc(-c3cnc4n3CCNC4)cc12` [compound 116], the EC50 (CLK2 kinase) was 1 nM, the EC50 (CLK3 kinase) was 391 nM and the EC50 [1] was 13 nM. It also gave an Emax [1] of 61.2% and an EC50 [2] of 684 nM.

`Cc1cc(-c2ccc3[nH]nc(C(=O)Nc4ccc(OC5CCN(C)CC5)cc4)c3c2)sn1` [compound 117] showed an EC50 (CLK2 kinase) of 2 nM, an EC50 (CLK3 kinase) of 147 nM and an EC50 [1] of 44.2 nM. It also gave an Emax [1] of 94.4% and an EC50 [2] of 645 nM.

— patent US20230000842A1, “METHODS OF TREATING CARTILAGE DISORDERS THROUGH INHIBITION OF CLK AND DYRK” (SAMUMED, LLC, priority 2019, published 2023)
